Reference: patent publication US10658848B2, “Materials for use with aqueous redox flow batteries and related methods and systems” (Massachusetts Institute of Technology, priority 2014, dated 2020)
≈ marks a conversion by molar mass, not a printed value. Read-outs that look alike come from different tables or passages of the source.

Experiments:
[1] = Solubility limit of quinoxaline in electrolytes and DI H2O; type: physicochemical; conditions: thermodynamic from solid
Experimental: The solubility limit (at room temperature) of quinoxaline in several electrolytes and DI H2O was estimated using the following method. Scintillation vials were filled with a known volume of electrolyte, and quinoxaline was added in 0.5 M increments. The vials were then vortex sonicated for ˜5 min between quinoxaline additions. Once no more quinoxaline could be dissolved into the vial, the solubility limit was recorded. This method was accurate to the lowest 0.5 M concentration, and solution volume changes due to quinoxaline addition were not considered.

[2] = Repeated CV cycling of 5 mM quinoxaline in 1 M potassium chloride; type: physicochemical
Experimental: Electrochemical experiments were carried out using other electrolytes.

## c1ccc2nccnc2c1 [quinoxaline]
[1]; 0.45 M K2SO4/0.1 M KOH electrolyte, aqueous buffer, 0.45M K2SO4/0.1M KOH, pH 12.9, room temperature, three phase separation, read-out: Solubility Limit
  solubility: 500 mM (≈ 65.1 mg/mL)
[1]; 0.495 M K2SO4/0.01 M KOH electrolyte, aqueous buffer, 0.495M K2SO4/0.01M KOH, pH 11.8, room temperature, three phase separation, read-out: Solubility Limit
  solubility: 500 mM (≈ 65.1 mg/mL)
[1]; 0.9 M KCl/0.1 M KOH electrolyte, aqueous buffer, 0.9M KCl/0.1M KOH, pH 12.9, room temperature, bed of small crystals, read-out: Solubility Limit
  solubility: 4000 mM (≈ 521 mg/mL)
[1]; 0.99 M KCl/0.01 M KOH electrolyte, aqueous buffer, 0.99M KCl/0.01M KOH, pH 11.8, room temperature, bed of small crystals, read-out: Solubility Limit
  solubility: 4000 mM (≈ 521 mg/mL)
[1]; 1 M KOH electrolyte, aqueous buffer, 1M KOH, pH 13.7, room temperature, dendritic precipitation of crystals, read-out: Solubility Limit
  solubility: 500 mM (≈ 65.1 mg/mL)
[1]; aqueous electrolytes containing K2SO4 or only KOH, aqueous buffer, read-out: solubility of quinoxaline
  solubility: ≤ 500 mM
[1]; solutions containing KCl, aqueous buffer, read-out: solubility of quinoxaline
  solubility: ≤ 4000 mM
[1]; water, DI H2O, pH 7.0, room temperature, bed of small crystals, read-out: Solubility Limit
  solubility: 4500 mM (≈ 586 mg/mL)
[2]; 5 mM quinoxaline in 1 M potassium chloride with 10 mM potassium hydroxide
  peak currents on repeated cycling: no decrease in peak currents was observed after 100 or 200 cycles
[2]; 5 mM quinoxaline in 1 M potassium chloride, no added base, glassy carbon electrode
  cathodic and anodic currents on repeated cycling: decreased with repeated cycling
